Laboratory results: patent US20110071108A1, “Beta-Cyclodextrin Derivatives as Antibacterial Agents” (Pinnacle Pharmaceuticals, Inc., priority 2005, published 2011)

Legend:
Test in all cases: Bacterial panel testing, MIC by broth microdilution
Assay type in all cases: cell-based
Conditions in all cases: 20-24 hours growth
[1] = tested on: Staphylococcus aureus
Outline: (§1)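 Strains grown 2-4 h, 37° C, MH or BHI broth per strain; McFarland-standardized, diluted in media. Cpd 10 μg/ml in DMSO, 2-fold serial dilution cols 2-12. Rifampicin included. 20-24 h growth; clear wells scored.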

[2] = tested on: Pseudomonas aeruginosa
Outline: as §1

[3] = tested on: Bacillus atrophaeus
Outline: as §1

[4] = tested on: Eschericia coli
Outline: as §1

[5] = tested on: Salmonella choleraesuis
Outline: as §1

[6] = tested on: Enterococcus faecium
Outline: as §1

O=C(O)COC[C@H]1O[C@@H]2O[C@H]3[C@H](O)[C@@H](O)[C@@H](O[C@H]4[C@H](O)[C@@H](O)[C@@H](O[C@H]5[C@H](O)[C@@H](O)[C@@H](O[C@H]6[C@H](O)[C@@H](O)[C@@H](O[C@H]7[C@H](O)[C@@H](O)[C@@H](O[C@H]8[C@H](O)[C@@H](O)[C@@H](O[C@H]1[C@H](O)[C@H]2O)O[C@@H]8COCC(=O)O)O[C@@H]7COCC(=O)O)O[C@@H]6COCC(=O)O)O[C@@H]5COCC(=O)O)O[C@@H]4COCC(=O)O)O[C@@H]3COCC(=O)O
>200 µg/mL: MIC SA [1] | MIC PA [2] | MIC BA [3] | MIC EC [4] | MIC SC [5] | MIC EF [6]

O[C@@H]1[C@@H](O)[C@H]2O[C@H]3[C@H](O)[C@@H](O)[C@@H](O[C@H]4[C@H](O)[C@@H](O)[C@@H](O[C@H]5[C@H](O)[C@@H](O)[C@@H](O[C@H]6[C@H](O)[C@@H](O)[C@@H](O[C@H]7[C@H](O)[C@@H](O)[C@@H](O[C@H]8[C@H](O)[C@@H](O)[C@@H](O[C@@H]1[C@@H](CSCc1ccccc1)O2)O[C@@H]8CSCc1ccccc1)O[C@@H]7CSCc1ccccc1)O[C@@H]6CSCc1ccccc1)O[C@@H]5CSCc1ccccc1)O[C@@H]4CSCc1ccccc1)O[C@@H]3CSCc1ccccc1
>200 µg/mL: MIC SA [1] | MIC PA [2] | MIC BA [3] | MIC EC [4] | MIC SC [5] | MIC EF [6]

CC(=O)OC1C2OC(Cn3cc(Cc4ccccc4)nn3)C(OC3OC(Cn4cc(Cc5ccccc5)nn4)C(OC4OC(Cn5cc(Cc6ccccc6)nn5)C(OC5OC(Cn6cc(Cc7ccccc7)nn6)C(OC6OC(Cn7cc(Cc8ccccc8)nn7)C(OC7OC(Cn8cc(Cc9ccccc9)nn8)C(OC8OC(Cn9cc(Cc%10ccccc%10)nn9)C(O2)C(OC(C)=O)C8OC(C)=O)C(OC(C)=O)C7OC(C)=O)C(OC(C)=O)C6OC(C)=O)C(OC(C)=O)C5OC(C)=O)C(OC(C)=O)C4OC(C)=O)C(OC(C)=O)C3OC(C)=O)C1OC(C)=O (stereo not drawn)
>200 µg/mL: MIC SA [1] | MIC PA [2] | MIC BA [3] | MIC EC [4] | MIC SC [5] | MIC EF [6]

OC1C2OC(Cn3cc(Cc4ccccc4)nn3)C(OC3OC(Cn4cc(Cc5ccccc5)nn4)C(OC4OC(Cn5cc(Cc6ccccc6)nn5)C(OC5OC(Cn6cc(Cc7ccccc7)nn6)C(OC6OC(Cn7cc(Cc8ccccc8)nn7)C(OC7OC(Cn8cc(Cc9ccccc9)nn8)C(OC8OC(Cn9cc(Cc%10ccccc%10)nn9)C(O2)C(O)C8O)C(O)C7O)C(O)C6O)C(O)C5O)C(O)C4O)C(O)C3O)C1O (stereo not drawn)
>200 µg/mL: MIC SA [1] | MIC PA [2] | MIC BA [3] | MIC EC [4] | MIC SC [5] | MIC EF [6]

Cl.Cl.Cl.Cl.Cl.Cl.Cl.NC(CCC(=O)O)C(=O)NCC1OC2OC3C(CNC(=O)C(N)CCC(=O)O)OC(OC4C(CNC(=O)C(N)CCC(=O)O)OC(OC5C(CNC(=O)C(N)CCC(=O)O)OC(OC6C(CNC(=O)C(N)CCC(=O)O)OC(OC7C(CNC(=O)C(N)CCC(=O)O)OC(OC8C(CNC(=O)C(N)CCC(=O)O)OC(OC1C(O)C2O)C(O)C8O)C(O)C7O)C(O)C6O)C(O)C5O)C(O)C4O)C(O)C3O (stereo not drawn)
>200 µg/mL: MIC SA [1] | MIC PA [2] | MIC BA [3] | MIC EC [4] | MIC SC [5] | MIC EF [6]

Cl.Cl.Cl.Cl.Cl.Cl.Cl.Cl.Cl.Cl.Cl.Cl.Cl.Cl.NC(Cc1cnc[nH]1)C(=O)NCC1OC2OC3C(CNC(=O)C(N)Cc4cnc[nH]4)OC(OC4C(CNC(=O)C(N)Cc5cnc[nH]5)OC(OC5C(CNC(=O)C(N)Cc6cnc[nH]6)OC(OC6C(CNC(=O)C(N)Cc7cnc[nH]7)OC(OC7C(CNC(=O)C(N)Cc8cnc[nH]8)OC(OC8C(CNC(=O)C(N)Cc9cnc[nH]9)OC(OC1C(O)C2O)C(O)C8O)C(O)C7O)C(O)C6O)C(O)C5O)C(O)C4O)C(O)C3O (stereo not drawn)
>200 µg/mL: MIC SA [1] | MIC PA [2] | MIC BA [3] | MIC EC [4] | MIC SC [5] | MIC EF [6]

OC1C2OC(CNC(=S)Nc3ccccc3)C(OC3OC(CNC(=S)Nc4ccccc4)C(OC4OC(CNC(=S)Nc5ccccc5)C(OC5OC(CNC(=S)Nc6ccccc6)C(OC6OC(CNC(=S)Nc7ccccc7)C(OC7OC(CNC(=S)Nc8ccccc8)C(OC8OC(CNC(=S)Nc9ccccc9)C(O2)C(O)C8O)C(O)C7O)C(O)C6O)C(O)C5O)C(O)C4O)C(O)C3O)C1O (stereo not drawn)
>200 µg/mL: MIC SA [1] | MIC PA [2] | MIC BA [3] | MIC EC [4] | MIC SC [5] | MIC EF [6]
